Source: paper PMC6006164, “Natural cyclopeptide RA-V inhibits the NF-κB signaling pathway by targeting TAK1” (Cell Death & Disease, 2018)

What was measured:
[1] = tested on: NF-κB target genes, IL-8, MCP-1, and E-selectin; assay: Quantitative RT-PCR of TNF-α-induced NF-κB target genes; type: cell-based, Homo sapiens; details: HEK293T or HeLa; RA-V 24 h, 10 ng/mL TNF-α 2 h; normalized to GADPH
Method: Fig. 1 RA-V inhibits TNF-α- and LPS-induced activation of NF-κB. a Chemical structure of RA-V. b RA-V inhibited the NF-κB signaling pathway in a dose-dependent manner. HEK293T or HeLa cells were transfected with the 5 × κB-luciferase and pTK-Renilla reporters. Twenty-four hours after transfection, the cells were incubated with various concentrations of RA-V for 6 h, and then treated with 10 ng/mL TNF-α for 2 h before the luciferase activity assay and MTT assay. c RA-V reduced TNF-α-induced expression of NF-κB target genes. HEK293T or HeLa cells were treated with various concentrations of RA-V for 24 h and stimulated with 10 ng/mL TNF-α for 2 h. The expression of the NF-κB target genes, IL-8, MCP-1, and E-selectin was measured by quantitative RT-PCR and normalized to GADPH expression. d RA-V inhibited TNF-α-induced p65 phosphorylation, IκBα phosphorylation and IκBα degradation. […] The expression of IL-6 was measured. h RA-V inhibited LPS-induced p65 phosphorylation, IκBα phosphorylation. […] The protein expression was measured. i RA-V inhibited LPS-induced IL-6 production. […] The expression of IL-6 was measured.
The total RNA was extracted from the indicated cells using TRIzol reagent (Invitrogen) according to the manufacturer’s instructions and then was reverse transcribed. The RNA concentrations were measured spectrophotometrically with a BioPhotometer (Eppendorf). […]

[2] = tested on: LPS-induced endotoxin shock; assay: Mouse endotoxin shock model; type: in vivo, mice
Method: The above results prompted us to explore the in vivo effect of RA-V on the NF-κB signaling pathway. We extended our study to the mouse endotoxin shock model, in which mice were intraperitoneally injected with LPS (10 mg/kg or 20 mg/kg) and evaluated for changes by examining physiological parameters induced by the inflammatory response.
First, the mice were intravenously injected with RA-V micelles (0.25 mg/kg body weight) or control micelles at three time points: 52, 28, and 4 h before they were intraperitoneally injected with phosphate-buffered saline (PBS) or LPS (10 mg/kg). One hour after LPS injection, we examined proinflammatory cytokines (IL-6 and TNF-α) production at the transcriptional and translational levels. […] As expected, after receiving the LPS injection, all of the control mice died within 36 h, whereas 60% of the RA-V-treated mice survived (Fig. 2d). To further confirm the in vivo effect of RA-V on the NF-κB pathway, we performed the endotoxin shock model on NF-κB-luciferase transgenic mice.
Fig. 2 RA-V prevents endotoxic shock and inhibits NF-κB activation in vivo. a–c RA-V prevents endotoxic shock in vivo. Mice (n = 6 per group) were intravenously injected with RA-V micelles (0.25 mg/kg body weight) or control micelles 52, 28, and 4 h before an intraperitoneal injection of LPS (10 mg/kg). One hour later, the relative levels of IL-6 and TNF-α mRNAs in the liver were assessed by quantitative RT-PCR (a), the serum IL-6 and TNF-α levels were quantified by ELISA (b), and the expression of p65 and IκBα phosphorylation in the liver were measured by immunoblot analysis c. d RA-V improved animal survival. Mice (n = 20 per group) were intravenously injected with RA-V micelles (0.25 mg/kg body weight) or control micelles 52, 28, and 4 h before intraperitoneal injection of LPS (20 mg/kg). Animal survival was recorded in 2–3 hours intervals. e RA-V inhibits NF-κB activation in vivo. The NF-κB-luc transgenic mice (n = 4 per group) were intravenously injected with RA-V micelles (0.25 mg/kg body weight) or control micelles 52, 28, and 4 h before intraperitoneal injection with LPS (10 mg/kg). NF-κB-luc transgenic mice were photographed at different time points and representative images are shown. The bioluminescent signals from all of the mice were detected and quantified. The data are presented as the means ± S.D. *, p < 0.05; **, p < 0.01

[3] = RA-V micelles 0.25 mg/kg i.v. 52, 28, 4 h before LPS 10 mg/kg i.p., 1 h after LPS, n = 6

RA-V
TNF-α-induced expression of IL-8, MCP-1, and E-selectin [1]: dose-dependently decreased
IL-6 and TNF-α in the serum (ELISA) [2, 3]: reduced expression
expression of IL-6 and TNF-α mRNAs in liver tissue [2, 3]: significantly decreased
phosphorylation of IκBα and p65 in liver tissue ([2]; RA-V micelles 0.25 mg/kg i.v. 52, 28, 4 h before LPS 10 mg/kg i.p., immunoblot): clearly inhibited
survival of mice after lethal dose of LPS ([2]; RA-V micelles 0.25 mg/kg i.v. 52, 28, 4 h before LPS 20 mg/kg i.p., n = 20, all control mice died within 36 h): 60%
